Measurements taken from US11225490B2, “Prodrugs of secondary amine compounds” (Alkermes Pharma Ireland Limited, priority 2011, dated 2022).

Assay: Pharmacokinetic evaluation of prodrugs in rats (plasma olanzapine and prodrug after intramuscular injection)
Assay type: in vivo, Male Sprague-Dawley rats
Settings: ([Prodrug AUClast/MWprodrug]/[OLZ AUCINF/MWOLZ])*100, IM, dose 3 mg
Procedure: Male Sprague-Dawley rats (Charles River Laboratories, Wilmington, Mass.) 25 male Sprague-Dawley rats are obtained. Approximately 24 rats are used in each study. Rats are approximately 325-350 g at time of arrival, and are housed 2 per cage with ad libitum chow and water. Environmental conditions in the housing room are 64-76° F., 30% to 70% relative humidity, and 12:12-h light:dark cycle. All experiments are approved by the Institutional Animal Care and Use Committee.
Prodrug compounds (Compound 56, Compound 111, and Compound 112) of the invention and corresponding parent drugs of the prodrugs are tested.
Rats are dosed IM by means of a 25 gauge, ⅝ in. needle with 1 cc syringe. 0.3mL suspension is withdrawn from the vial containing the test compound. The rat is injected in the muscles of the hind limb after anesthesia with isoflourane. Blood samples are collected via a lateral tail vein after brief anesthesia with Isoflurane. A 27½ G needle and lcc syringe without an anticoagulant is used for the blood collection. Approximately 250 μL of whole blood is collected at each sampling time point of 1 hour, 6 hours, 24 hours and 2, 3, 6, 7, 10, 14 days after administration. Once collected, whole blood is immediately transferred to tubes containing an esterase inhibitor and anti-coagulant, inverted 10-15 times and immediately placed on ice. The tubes are centrifuged for 2 minutes at >14,000 g's (11500 RPMs using Eppendorf Centrifuge at 2-6° C. to separate plasma. Plasma samples are transferred to labeled plain tubes and stored frozen at <−70° C. The study design is shown in Table 5 and the PK results are given in Table 6.
The Olanzapine and prodrug concentrations in plasma samples were analyzed by liquid chromatography-tandem mass spectroscopy using appropriate parameters for each compound.
Half life, maximal concentration, and AUC are calculated using WinNonlin software, version 5.2 (Pharsight, St. Louis, Mo.). (FIGS. 1-4).

Structure (SMILES)	Relative exposure of prodrug
CCCCCCCCCCCCCCCC(=O)OCOC(=O)N1C(N2CCN(C)CC2)=c2cc(C)sc2=Nc2ccccc21 [Compound 56, (palmitoyloxy)methyl 2-methyl-4-(4-methylpiperazin-1-yl)-5H-benzo[b]thieno[2,3-e][1,4]diazepine-5-carboxylate]	Not detected
CCCCCCCCCCCCCCCCCC(=O)OCOC(=O)N1C(N2CCN(C)CC2)=c2cc(C)sc2=Nc2ccccc21 [Compound 111, (stearoyloxy)methyl 2-methyl-4-(4-methylpiperazin-1-yl)-5H-benzo[b]thieno[2,3-e][1,4]diazepine-5-carboxylate]	<3%
CCCCCCCCCCCCCCCCCCCC(=O)OCOC(=O)N1C(N2CCN(C)CC2)=c2cc(C)sc2=Nc2ccccc21 [Compound 112, (icosanoyloxy)methyl 2-methyl-4-(4-methylpiperazin-1-yl)-5H-benzo[b]thieno[2,3-e][1,4]diazepine-5-carboxylate]	12%
